Results on 1 compound are retold here after patent US20090286781A1, “Use of Suluble Guanylate Cyclase Acitvators for Treating Acute and Chronic Lung Diseases” (Bayer HealtHCare AG, priority 2005, published 2009).

The assay concerns male C57B1/6J mice subjected to hypoxia (10% O2). As to the kind of experiment: Hypoxia model of experimental pulmonary hypertension. The format is in vivo. The note with it: hypoxia (10% O2) for 7 or 10 days; 300 ppm of compound in the feed for 10 days; lung histology; compared with the hypoxia control animals (FIG. 1). The text has this:
The method for investigating the effect of the compound (IV) of the invention in the model of experimental pulmonary hypertension was as described (Dumitrascu R, Weissmann N, Ghofrani H A, Beuerlein K, Schmidt H H H W, Stasch J P, Gnoth M J, Seeger W, Grimminger F, Schermuly R T, Activation of soluble guanylate cyclase reverses lung vascular remodeling and pulmonary hypertension evoked by hypoxia in mice, Circulation 2006, 113: 286-295). For this purpose, male C57B1/6J mice (Charles River Laboratories) were subjected to hypoxia (10% O2) for 7 or 10 days. The control animals were kept in a normal oxygen environment. The mice were treated for 10 days with 300 ppm of compound (IV) in the feed. At the end of the test, the mice were sacrificed and the lungs were isolated. Histological workup and evaluation was carried out as in the abovementioned publication.

With `COC(=O)N(C)c1c(N)nc(-c2nn(Cc3ccccc3F)c3ncccc23)nc1N` [Compound (IV)], the “non-muscularized and partly muscularized fraction of the pulmonary vessels” value is listed as “significantly reduced”.
